Measurements reported in BindingDB's records for doi:10.1016/s0742-8413(97)00614-2 (University of Montana, 1997).

Molecular target: T1, 5-hydroxytryptamine receptor 1A (Oryctolagus cuniculus, UniProt Q9MZ11)
T1 sequence (Q9MZ11 whole entry): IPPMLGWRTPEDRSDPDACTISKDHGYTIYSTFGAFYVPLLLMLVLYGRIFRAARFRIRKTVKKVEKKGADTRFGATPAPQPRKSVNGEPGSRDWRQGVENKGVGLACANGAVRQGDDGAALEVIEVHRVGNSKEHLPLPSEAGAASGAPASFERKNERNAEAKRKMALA

Question: How did the Ki turn out when `C=C1C(=O)O[C@H]2[C@H]1CC/C(C)=C\CC[C@@]1(C)O[C@@H]21` was run?
Answer: The Ki was greater than 10000 nM.

Question: `CSc1ccc2c(c1)C(N1CCN(C)CC1)Cc1ccccc1S2` (stereo unspecified) [methanesulfonic acid;1-methyl-4-(3-methylsulfanyl-5,6-dihydrobenzo[b][1]benzothiepin-5-yl)piperazine] was tested. Which Ki did it give?
Answer: Its Ki is 810 nM.

Question: Which Ki does the source give for `NCCc1ccc(O)c(O)c1` here?
Answer: Its Ki is 7800 nM.

Question: `COc1cccc(OC)c1OCCNCC1Oc2ccccc2OC1c1ccccc1` (stereo unspecified) [NSC_185453] was tested. Which Ki did it give?
Answer: The Ki was 3 nM.

Question: `FC(F)(F)c1cccc(N2CCNCC2)c1` [TFMPP] was tested. Which Ki did it give?
Answer: The Ki was 130 nM.

Question: How did the Ki turn out when `O=C1NCN(c2ccccc2)C12CCN(CC1COc3ccccc3O1)CC2` (stereo unspecified) [8-(2,3-Dihydro-benzo[1,4]dioxin-2-ylmethyl)-1-phenyl-1,3,8-triaza-spiro[4.5]decan-4-one] was run?
Answer: The Ki was 2.4 nM.
